According to US20060019320A1, “Wnt mediated erbb signalling, compositions and uses related thereto” (priority 2002, published 2006):

Columns and labels:
ERK1/2 = assay: phospho-ERK1/2 immunoblot (MAPK activity) in HC11 cells; type: cell-based, mouse; conditions: for ability of the Wnt proteins to stimulate ERK1/2 activity: C-HC11 pretreated 1 hr with inhibitor, then Wnt CM for 10 minutes
Text: The MAPK and PI3K pathways are major signaling cascades downstream of activated ErbB receptors (Olayioye et al., 2000). Antisera specific for the active, phosphorylated forms of ERK1/2 and PKB, the major kinases on the respective pathways, were used to probe for their activity. 50 micrograms of WCL were immunoblotted essentially as described above with the exception that a phospho-ERK1/2 antibody (commercially available, New England Biolabs) or a phosphoPKB antibody was used. Membranes were stripped and reprobed for ERK1/2 (anti-p44/42 ERK, New England Biolabs).
Briefly, conditioned media (CM) from Wnt-HC11 cells prepared as described in Example 1 was tested for its effect on ErbB1 and MAPK activity, essentially as described above. Treatment of C-HC11 cells for 10 min with Wnt1- and Wnt5a-CM stimulated phospho-ERK1/2 levels 5-6-fold, whereas CM from C-HC11 cells had no effect.
To rule out the potential involvement of ErbB1 ligands in mediating the effects of Wnt-containing CM, we used secreted Frizzled-related protein-1 (sFRP-1), which binds Wnt preventing it from binding Fz (Uren et al., 2000). CM from human embryonic kidney (HEK293) cells stably expressing the sFRP1 expression vector or control HEK 293 cells was premixed 1 hr with Wnt-containing CM (1:1) before adding to C-HC11 cultures for 10 min. Simultaneous addition of CM from sFRP1-producing 293 cells with Wnt-containing CM prevented Wnt1 and Wnt5a from increasing phospho-ERK1/2 levels, showing that sFRP1 blocks Wnt signalling through Fz to ErbB1. As a control, the cells were also treated for 10 minutes with EGF in the presence of sFRP1.
To test for a role of metalloproteinases in Wnt-expressing HC11 cells, two metalloproteinase inhibitors were used, namely phenanthroline (Calbiochem), a metal ion chelator, or CGS27023A, an enzymatic inhibitor (Wang et al., 1999). Cells were treated for 1 hour with phenathroline, CGS27023A, (both at 50μM) or DMSO carrier. ErbB1 was immunoprecipitated from 500 micrograms WCL and immunoblotted with a phosphotyrosine specific antibody, essentially as described above. Membranes were stripped and reprobed for ErbB1. ERK1/2 was probed from 50 micrograms of WCL, immunoblotted with a phospho-ERK1/2 antibody, essentially as described above. Membranes were stripped and reprobed for ERK1/2.
The metalloproteinase inhibitors were next tested in the presence of Wnt-containing CM. C-HC11 cultures were pretreated 1 hr with metalloproteinase inhibitors before treatment with CM from C- or Wnt-HC11 cells for 10 minutes. Phospho-ERK1/2 levels were determined as above. Phenanthroline and CGS 27023A each blocked the ability of the Wnt proteins to stimulate ERK1/2 activity in C-HC11 cells. Similar results were obtained with HC11 cells constitutively expressing the Wnt proteins. Thus, Wnt-mediated activation of ErbB1 and ERK is dependent on a metalloproteinase activity.

cyclin D1 = assay: Cyclin D1 immunoblot in HC11 cells; type: cell-based, mouse; conditions: Wnt1- and Wnt5a-HC11 cells treated 6 hr
Procedure: Briefly, WCL was prepared from HC11, Wnt1- and Wnt5a-expressing HC11 cells and 50 μg immunoblotted essentially as described above using commercially available antibodies against cyclin D1 (NovaCastra) or cyclin D2 (SantaCruz). Both Wnt1- and Wnt5a-HC11 cells express higher levels of cyclin D1, in comparison to HC11 cells. In addition, Wnt1-HC11 cells but not C- or Wnt5a-HC11 cells express cyclin D2.
C-HC11 cells were also treated 6 hrs with CM from Wnt-HC11 cells. WCL were prepared and 50 μg was immunoblotted for Cyclin D1 or Cyclin D2. Similar to the results with the Wnt-HC11 cell lines, both Wnts (CM) stimulated Cyclin D1 expression, while only Wnt1 enhanced cyclin D2 levels.
To assess the contribution of Wnt-transactivated ErbB1 on cyclin D1 and D2 expression, C- and Wnt-HC11 cells were treated 6 hr with PKI166 or CGS27023A or EGF. […] In contrast, the ErbB1 inhibitor had no effect on cyclin D2 levels. […] Thus, cyclin D1 and cyclin D2 are differentially controlled. Both Wnt1 and Wnt5a transactivate ErbB1, which results in increased expression of cyclin D1; in contrast cyclinD2 is only elevated in Wnt1 expressing cells and this is independent of ErbB1 activity.

ErbB1 = molecular target: T1, ErbB1 (Mus musculus, UniProt Q01279); assay: ErbB1 immunoprecipitation and phosphotyrosine immunoblot in HC11 cells; type: cell-based; conditions: Wnt-HC11 cells, 5 microM for 1 hr
T1 construct: endogenous in cells; host or cells: HC11 mammary cells (C-HC11, Wnt1-HC11, Wnt5a-HC11)
Procedure: ErbB1 is transactivated by many classes of membrane proteins (Carpenter, 1999; Gschwind et al., 2001). However, Wnt/VFz-mediated activation of ErbB1 has not been reported previously. Since ErbB1 tyrosine phosphorylation is an essential step in ErbB1 activation, we examined whether Wnt can activate ErbB1, by immunoprecipitating the receptor form Wnt/HC11 cells and performing a Westem analysis with phosphotyrosine specific antiserum. For these experiments HC11 cells were grown over night in medium without EGF. As a control for ErbB1 activation, C-HC 11 and Wnt-HC11 cells were treated for 10 minutes with 100 ng/ml EGF. An ErbB1 selective kinase inhibitor PKI166 (Traxler et al., 2001) was also used in some experiments. For this, the cells were pretreated 1 hr with 5 microM PKI 166, or left untreated, before preparing WCLs, essentially as described in Example 1.
ErbB1 was immunoprecipitated from 500 micrograms WCL and immunoblotted with a phosphotyrosine specific antibody (anti-phosphotyrosine AG10, Upstate Biotechnology) essentially as described previously (Lane et al., 2000). Membranes were stripped by placing them in 2% SDS, 62.5 mM Tris pH 6.8, 100 mM beta-mercaptoethanol at 60° C. for 30 min. Stripped membranes were reprobed for ErbB1 using a commercially available antibody (antibody 1005,Santa Cruz Biotechnology). […]

cyclin D2 = assay: Cyclin D2 immunoblot in HC11 cells; type: cell-based, mouse; conditions: Wnt-HC11 cells treated 6 hr
Procedure: Briefly, WCL was prepared from HC11, Wnt1- and Wnt5a-expressing HC11 cells and 50 μg immunoblotted essentially as described above using commercially available antibodies against cyclin D1 (NovaCastra) or cyclin D2 (SantaCruz). Both Wnt1- and Wnt5a-HC11 cells express higher levels of cyclin D1, in comparison to HC11 cells. In addition, Wnt1-HC11 cells but not C- or Wnt5a-HC11 cells express cyclin D2. C-HC11 cells were also treated 6 hrs with CM from Wnt-HC11 cells. WCL were prepared and 50 μg was immunoblotted for Cyclin D1 or Cyclin D2. Similar to the results with the Wnt-HC11 cell lines, both Wnts (CM) stimulated Cyclin D1 expression, while only Wnt1 enhanced cyclin D2 levels. To assess the contribution of Wnt-transactivated ErbB1 on cyclin D1 and D2 expression, C- and Wnt-HC11 cells were treated 6 hr with PKI166 or CGS27023A or EGF. […] In contrast, the ErbB1 inhibitor had no effect on cyclin D2 levels. […] Thus, cyclin D1 and cyclin D2 are differentially controlled. Both Wnt1 and Wnt5a transactivate ErbB1, which results in increased expression of cyclin D1; in contrast cyclinD2 is only elevated in Wnt1 expressing cells and this is independent of ErbB1 activity.

T1 sequence (Q01279 25-1210): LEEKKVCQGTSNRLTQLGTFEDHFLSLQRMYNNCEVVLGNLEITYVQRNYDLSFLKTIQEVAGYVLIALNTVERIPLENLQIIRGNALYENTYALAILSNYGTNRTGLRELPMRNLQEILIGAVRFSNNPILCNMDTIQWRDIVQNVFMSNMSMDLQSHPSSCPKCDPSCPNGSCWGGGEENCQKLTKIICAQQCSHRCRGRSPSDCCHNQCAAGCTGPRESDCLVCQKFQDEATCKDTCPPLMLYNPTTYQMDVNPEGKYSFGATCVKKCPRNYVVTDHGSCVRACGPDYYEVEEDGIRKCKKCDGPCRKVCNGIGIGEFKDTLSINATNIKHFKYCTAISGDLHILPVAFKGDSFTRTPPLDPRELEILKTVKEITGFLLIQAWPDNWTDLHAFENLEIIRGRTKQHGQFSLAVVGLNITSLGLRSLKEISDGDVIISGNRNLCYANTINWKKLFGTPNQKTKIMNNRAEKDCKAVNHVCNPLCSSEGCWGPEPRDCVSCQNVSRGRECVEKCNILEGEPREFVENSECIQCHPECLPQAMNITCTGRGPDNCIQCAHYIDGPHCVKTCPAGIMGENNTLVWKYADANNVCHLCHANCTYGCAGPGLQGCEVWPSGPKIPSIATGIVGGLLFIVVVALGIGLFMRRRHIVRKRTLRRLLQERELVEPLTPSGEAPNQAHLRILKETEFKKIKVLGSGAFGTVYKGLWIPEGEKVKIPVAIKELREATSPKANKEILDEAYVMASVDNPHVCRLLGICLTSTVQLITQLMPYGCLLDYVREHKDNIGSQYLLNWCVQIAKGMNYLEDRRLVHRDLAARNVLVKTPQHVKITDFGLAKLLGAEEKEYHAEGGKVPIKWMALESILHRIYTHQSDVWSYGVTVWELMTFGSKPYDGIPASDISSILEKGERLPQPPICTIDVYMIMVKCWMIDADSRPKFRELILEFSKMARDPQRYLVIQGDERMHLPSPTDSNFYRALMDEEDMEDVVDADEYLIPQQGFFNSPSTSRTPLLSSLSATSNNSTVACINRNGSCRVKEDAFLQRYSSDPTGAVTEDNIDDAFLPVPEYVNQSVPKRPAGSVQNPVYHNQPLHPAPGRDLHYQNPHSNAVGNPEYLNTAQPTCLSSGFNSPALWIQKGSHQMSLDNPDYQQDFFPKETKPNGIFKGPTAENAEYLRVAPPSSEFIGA

| Compound | ability of the Wnt proteins to stimulate ERK1/2 activity (ERK1/2) | cyclin D1 level (cyclin D1) | ability of Wnt-containing CM to stimulate phospho-ERK1/2 levels (ERK1/2; C-HC11 cells pre-treated for 1 hour with inhibitor) | EGF induction of MAPK activity (ERK1/2; C-HC11 cells, pretreatment with inhibitor) | constitutive level of phospho-ERK1/2 (ERK1/2; Wnt-expressing HC11 cells) | decrease of ErbB1's phosphotyrosine level (ErbB1) | cyclin D2 levels (cyclin D2) |
| --- | --- | --- | --- | --- | --- | --- | --- |
| COc1ccc(S(=O)(=O)N(Cc2cccnc2)[C@@H](C(=O)NO)C(C)C)cc1 [CGS27023A] | blocked | decreased expression | – | – | – | – | – |
| C[C@@H](Nc1ncnc2[nH]c(-c3ccc(O)cc3)cc12)c1ccccc1 [PKI166] | – | reduced cyclin D1 to the control level | blocked | prevented | reduced the constitutive level of phospho-ERK1/2 to basal | approximately 50% | no effect |
| c1cnc2c(c1)ccc1cccnc12 [Phenanthroline, phenanthroline] | blocked | – | – | – | – | – | – |
